Results on 2 compounds are retold here after paper PMC5986058 (FEBS Open Bio, 2018).

Experiment [1] addresses T1, LTAaj (L-threonine aldolase from Aeromonas jandaei; L-allo-threonine aldolase) (Aeromonas jandaei, UniProt O07051).
T1 construct: gene ltaA; C-terminal His-tag, expressed in E. coli BL21(DE3), Ni-NTA purified, homotetramer, PLP-dependent
T1 sequence (O07051 1-338): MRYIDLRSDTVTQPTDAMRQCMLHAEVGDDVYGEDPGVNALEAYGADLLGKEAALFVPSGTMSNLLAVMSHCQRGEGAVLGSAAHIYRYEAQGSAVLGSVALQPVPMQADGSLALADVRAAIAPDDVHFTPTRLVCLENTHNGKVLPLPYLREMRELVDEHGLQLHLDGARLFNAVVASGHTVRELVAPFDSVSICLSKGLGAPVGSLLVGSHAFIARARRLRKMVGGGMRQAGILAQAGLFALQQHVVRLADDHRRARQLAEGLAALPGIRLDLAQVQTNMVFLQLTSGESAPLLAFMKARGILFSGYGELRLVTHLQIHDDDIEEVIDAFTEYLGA
The experiment in a line: UV-vis spectroscopy of external aldimine ([…] nm) and quinonoid ([…] nm). It is filed as binding. As to conditions: 50 mM sodium phosphate pH 8.0, 22 °C, 0.1 M glycine; PLP enzyme; covalent.

Experiment [2] addresses T1, LTAaj (L-threonine aldolase from Aeromonas jandaei; L-allo-threonine aldolase). The experiment can be described thus: UV-vis spectroscopy of internal aldimine ([…]-420 nm). Conditions: 50 mM sodium phosphate pH 8.0, 22 °C; covalent Schiff base with K199. It is filed as binding.

Turning to `NCC(=O)O` [glycine], in experiment [1], the “UV-vis spectroscopy of external aldimine (420 nm) and quinonoid (495 nm)” value was “external aldimine with the glycine substrate in the wild type LTAaj and its mutants”.

As to `Cc1ncc(COP(=O)(O)O)c(C=O)c1O` [PLP], the “UV-vis spectroscopy of internal aldimine (410-420 nm)” value in experiment [2] is given as “Formation of the (A) internal aldimine”.
